Measurements from patent US20130029334A1, “mRNA As Biomarkers For Liver Injury or Other Liver Perturbations” (priority 2010, published 2013).
Several values for one entry are separate records, joined by “and”; a condition that tells them apart may be missing. Equal values may be shown once. Read-outs that look alike come from different tables or passages of the source.

What was measured:
rats [1] = details: 48 hours
Protocol: (§1) In this example, to model a drug causing liver perturbation (such as injury or hepatotoxicity), hepatotoxicant D-galactosamine (“DGAL”) was administered to rats. Male Sprague-Dawley rats were administered DGAL at 0 (sterile PBS) or 1000 mg/kg intraperitoneally, and sacrificed after 24 hours. […] Blood was harvested from DGAL-treated rats, and serum liver enzymes were measured using a standard laboratory assay.
(§2) In this example, to exemplify a drug causing liver injury, drug acetaminophen (“APAP”) was administered to rats. Rats were administered APAP at 0, 100, 700, and 1400 mg/kg by gavage, and then sacrificed at 6, 24 or 48 hours after treatment. Hematoxylin and eosin-stained liver sections were examined by an accredited pathologist and scored for incidence and severity of hepatocellular necrosis.

rats [2] = test: Alb, Fgb, Hp mRNA expression in liver of treated rats (FIG. 2); assay type: in vivo, rat
Protocol: FIG. 2 is a graph showing a log2 fold change in expression of Alb, Fgb, and Hp mRNA (detected as cDNA), respectively, in liver of rats treated with DGAL, or with acetaminophen (APAP), as compared to references values determined from rats not treated with DGAL (Control; solid black boxes) or APAP (Control; solid black boxes), respectively.
At 48 hours, Hp mRNA levels were increased by 9, 54 and 86 fold over controls, respectively, at 100, 700, and 1400 mg/kg APAP; while Alb mRNA levels were increased by 13 and 31 fold at 700 and 1400 mg/kg.

rats [3] = test: Whole genome microarray analysis of plasma mRNA of treated rats; assay type: in vivo, rat; details: 24 h; for number of mRNA biomarkers differentially expressed: 2-fold change, false discovery rate <0.05
Text: In this example, illustrated is whole genome microarray analysis, which can be used to reveal treatment-specific transcriptomic profiles following liver injury or liver enzyme induction. […] Total RNA was isolated from the 14,000×g plasma pellet from rats treated with DGAL or APAP. […] Next, this fragmented product was labeled via enzymatic attachment of a biotin-labeled nucleotide that contained an indicator molecule comprising a fluorophore. After this labeled cDNA was hybridized and bound to the oligonucleotides on the microarray, any unbound cDNA was washed away and the microarrays were scanned. During this process, the microarray chips were scanned at a wavelength that allowed the indicator molecule to fluoresce (the excitation wavelength). The level of mRNA biomarker was determined from the level of fluorescence (e.g., correlating to the amount of labeled cDNA hybridized to the microarray) using standard techniques. Data on measurement of mRNA biomarkers (which also may be representative of gene expression induced as a result of liver perturbation) was preprocessed using GC-RMA and log2-transformed. The probe-level microarray data was checked for quality using various graphical and statistical means. Arrays showing low quality RNA or poor amplification were excluded from the analysis. To evaluate the ability of whole genome microarray analysis using plasma mRNA to discriminate between DGAL- and APAP-induced liver perturbation, a one-way analysis of variance and individual t-tests were then used to identify which individual mRNA biomarkers were statistically altered between the two treatment groups. A false-discovery rate correction was used for multiple comparisons. Analysis software was utilized to identify networks of interacting genes and other functional groups using gene lists generated.

rats [4] = details: rat, in vivo
Protocol: as §1, §2
Using methods described previously herein, liver enzymes including serum ALT and AST levels, and plasma mRNA levels, were also assessed to determine hepatotoxicity following APAP administration.
Rats were treated with skeletal muscle toxicant bupivacaine (“BPVC”). For BPVC treatment, rats were administered 0.5 mL sterile saline or 0.5% w/v sterile solution of BPVC in saline once into both the right and left tibialis anterior muscles. […] To compare the specificity of circulating liver mRNAs with AST and ALT following skeletal muscle injury, rats were treated with BPVC, and then serum enzymes and circulating liver mRNAs were measured 24 hours after treatment.

[5] = APAP 1400 mg/kg treatment group
[6] = rat plasma, APAP 1400 mg/kg gavage

CC(=O)Nc1ccc(O)cc1 [APAP, acetaminophen]
mortality (rats [1]; APAP 700 mg/kg gavage): one rat
mortality (rats [1]; APAP 1400 mg/kg gavage): one rat
expression of Alb mRNA in liver (rats [2]; [5]): significant decrease
expression of Hp mRNA in liver (rats [2]; [5]): significant decrease
number of mRNA biomarkers differentially expressed (rats [3]; APAP 1400 mg/kg gavage): 1374
CYP450-related mRNAs in plasma (rats [3]; APAP 1400 mg/kg gavage): No increases
Fold increase Adam10 (rats [3]; [6]): 14 fold
Fold increase Akt3 (rats [3]; [6]): 4 fold
Fold increase Angpt1 (rats [3]; [6]): 23 fold
Fold increase Arhgef12 (rats [3]; [6]): Arhgef12 (12); F2RI2 (12) fold
Fold increase B2M (rats [3]; [6]): B2M (3) fold
Fold increase Calr (rats [3]; [6]): 3 fold
Fold increase Dapp1 (rats [3]; [6]): 5 fold
Fold increase F2RI2 (rats [3]; [6]): Arhgef12 (12); F2RI2 (12) fold
Fold increase Fcgr2b (rats [3]; [6]): 7 fold
Fold increase Grin1 (rats [3]; [6]): 10 fold
Fold increase Gsk3b (rats [3]; [6]): Gsk3b (6) fold
Fold increase Hla-C (rats [3]; [6]): 23 fold
Fold increase Hla-E1 (rats [3]; [6]): 9 fold
Fold increase Itga6 (rats [3]; [6]): 19 fold
Fold increase Itgav (rats [3]; [6]): Itgav (12) fold
Fold increase Itgb1 (rats [3]; [6]): 17 fold
Fold increase Jak2 (rats [3]; [6]): 13 fold
Fold increase Lyn (rats [3]; [6]): 10 fold
Fold increase Mapk1 (rats [3]; [6]): 15 fold
Fold increase Nck2 (rats [3]; [6]): 8 fold
Fold increase Pdia3 (rats [3]; [6]): Canx (5); Pdia3 (5); fold
Fold increase Prkc (rats [3]; [6]): 4 fold
Fold increase Prkcq (rats [3]; [6]): 3 fold
Fold increase Psap (rats [3]; [6]): 20 fold
Fold increase Rac1 (rats [3]; [6]): 4 fold
Fold-Change Alb mRNA (first listing) (rats [3]; [6]): 102.57 fold and 103 fold
Fold-Change Alb mRNA (second listing) (rats [3]; [6]): 11.26 fold
Fold-Change Arhgap28 mRNA (rats [3]; [6]): 23.18 fold
Fold-Change C2cd21 mRNA (rats [3]; [6]): 21.52 fold
Fold-Change Ccl2 mRNA (rats [3]; [6]): 79.83 fold
Fold-Change Ceacam1 mRNA (rats [3]; [6]): 28.57 fold
Fold-Change Cxcl2 mRNA (rats [3]; [6]): 68.29 fold
Fold-Change Cxcl7 mRNA (rats [3]; [6]): 37.96 fold
Fold-Change Cxcl12 mRNA (rats [3]; [6]): 30.90 fold and 31 fold
Fold-Change Fam183b mRNA (rats [3]; [6]): 26.31 fold
Fold-Change G1p2 mRNA (rats [3]; [6]): 17.16 fold
Fold-Change Galnt1 mRNA (rats [3]; [6]): 22.06 fold
Fold-Change Gpnmb mRNA (rats [3]; [6]): 6.10 fold
Fold-Change Hspa1a mRNA (rats [3]; [6]): 40.60 fold
Fold-Change Hspa1b mRNA (rats [3]; [6]): 21.07 fold
Fold-Change Kcnab1 mRNA (rats [3]; [6]): 24.65 fold
Fold-Change LOC259245 mRNA (rats [3]; [6]): 4.94 fold
Fold-Change Lta4h mRNA (rats [3]; [6]): 6.27 fold
Fold-Change Mt2a mRNA (rats [3]; [6]): 16.40 fold
Fold-Change Pde5a mRNA (rats [3]; [6]): 24.18 fold
Fold-Change Pgrmc1 mRNA (rats [3]; [6]): 2.82 fold
Fold-Change Prdx5 mRNA (rats [3]; [6]): 2.57 fold
Fold-Change Ptprj mRNA (rats [3]; [6]): 61.43 fold
Fold-Change RT1-A2 mRNA (rats [3]; [6]): 22.73 fold
Fold-Change Rbp4 mRNA (rats [3]; [6]): 20.44 fold
Fold-Change Serpina1 mRNA (rats [3]; [6]): 24.15 fold
Fold-Change Slc24a3 mRNA (rat SEQ ID NO: 47) (rats [3]; [6]): 25.57 fold
Fold-Change Slc24a3 mRNA (rat SEQ ID NO: 57) (rats [3]; [6]): 22.11 fold
Fold-Change Srxn1 mRNA (rats [3]; [6]): 21.98 fold
Fold-Change St3gal2 mRNA (rats [3]; [6]): 21.94 fold
Fold-Change Tuba4a mRNA (rats [3]; [6]): 4.21 fold
Fold-Change Vcl mRNA (rats [3]; [6]): 70.40 fold and 70 fold
Fold-Change Xpo5 mRNA (rats [3]; [6]): 30.54 fold

CCCCN1CCCCC1C(=O)Nc1c(C)cccc1C (stereo not shown) [BPVC, bupivacaine]
ALT (rats [4]): 73.70 ± 4.69 U/L
AST (rats [4]): 368.25 ± 31.81 U/L
elevation in serum ALT (rats [4]): 1.96 ×
elevation in serum AST (rats [4]): 3.58 ×

N[C@H]1C(O)O[C@H](CO)[C@H](O)[C@@H]1O (stereo partly drawn) [DGAL, D-(+)-galactosamine]
expression of Alb mRNA in liver (rats [2]; DGAL-treated rats): small but statistically insignificant decrease
expression of Fgb mRNA in liver (rats [2]; DGAL-treated rats): significant decrease
expression of Hp mRNA in liver (rats [2]; DGAL-treated rats): significant decrease
number of mRNA biomarkers differentially expressed (rats [3]; DGAL 1000 mg/kg ip): 804
Fold increase Aadat (rats [3]; rat plasma, DGAL 1000 mg/kg ip): 3 fold
Fold increase Apoc2 (rats [3]; rat plasma, DGAL 1000 mg/kg ip): 23 fold
Fold increase C9 (rats [3]; rat plasma, DGAL 1000 mg/kg ip): 10 fold
Fold increase Cf1h (rats [3]; rat plasma, DGAL 1000 mg/kg ip): 14 fold
Fold increase Cfb (rats [3]; rat plasma, DGAL 1000 mg/kg ip): 13 fold
Fold increase Cfi (rats [3]; rat plasma, DGAL 1000 mg/kg ip): 25 fold
Fold increase Cyp2a2 (rats [3]; rat plasma, DGAL 1000 mg/kg ip): 15 fold
Fold increase Cyp2c9 (rats [3]; rat plasma, DGAL 1000 mg/kg ip): 32 fold
Fold increase Cyp3a2 (rats [3]; rat plasma, DGAL 1000 mg/kg ip): 26 fold
Fold increase Cyp3a4 (rats [3]; rat plasma, DGAL 1000 mg/kg ip): 26 fold
Fold increase Cyp4f12 (rats [3]; rat plasma, DGAL 1000 mg/kg ip): 13 fold
Fold increase F2 (rats [3]; rat plasma, DGAL 1000 mg/kg ip): 14 fold
Fold increase Fga (rats [3]; rat plasma, DGAL 1000 mg/kg ip): 28 fold
Fold increase Mettl7b (rats [3]; rat plasma, DGAL 1000 mg/kg ip): Mettl7b (9) fold
Fold increase Pla2g4a (rats [3]; rat plasma, DGAL 1000 mg/kg ip): 7 fold
Fold increase Plg (rats [3]; rat plasma, DGAL 1000 mg/kg ip): 17 fold
Fold increase Serping1 (rats [3]; rat plasma, DGAL 1000 mg/kg ip): 7 fold
Fold-Change Alb mRNA (first listing) (rats [3]; rat plasma, DGAL 1000 mg/kg ip): 83.32 fold and 83 fold
Fold-Change Alb mRNA (second listing) (rats [3]; rat plasma, DGAL 1000 mg/kg ip): 77.08 fold
Fold-Change Ambp mRNA (rats [3]; rat plasma, DGAL 1000 mg/kg ip): 111.24 fold and 111 fold
Fold-Change Apoa1 mRNA (rats [3]; rat plasma, DGAL 1000 mg/kg ip): 53.34 fold and 53 fold
Fold-Change Apoc1 mRNA (rats [3]; rat plasma, DGAL 1000 mg/kg ip): 35.57 fold and 36 fold
Fold-Change Apoc3 mRNA (rats [3]; rat plasma, DGAL 1000 mg/kg ip): 58.09 fold
Fold-Change Apoh mRNA (rats [3]; rat plasma, DGAL 1000 mg/kg ip): 39.84 fold
Fold-Change Ccl2 mRNA (rats [3]; rat plasma, DGAL 1000 mg/kg ip): 25.35 fold
Fold-Change Cyp2c7 mRNA (rats [3]; rat plasma, DGAL 1000 mg/kg ip): 102.92 fold and 103 fold
Fold-Change Cyp2c13 mRNA (rats [3]; rat plasma, DGAL 1000 mg/kg ip): 40.38 fold and 40 fold
Fold-Change Fgg mRNA (rats [3]; rat plasma, DGAL 1000 mg/kg ip): 65.02 fold and 65 fold
Fold-Change Fgl1 mRNA (rats [3]; rat plasma, DGAL 1000 mg/kg ip): 52.04 fold
Fold-Change G1p2 mRNA (rats [3]; rat plasma, DGAL 1000 mg/kg ip): 5.78 fold
Fold-Change Gc mRNA (rats [3]; rat plasma, DGAL 1000 mg/kg ip): 42.82 fold
Fold-Change Gpnmb mRNA (rats [3]; rat plasma, DGAL 1000 mg/kg ip): 4.04 fold
Fold-Change Itih1 mRNA (rats [3]; rat plasma, DGAL 1000 mg/kg ip): 52.97 fold
Fold-Change Itih3 mRNA (rats [3]; rat plasma, DGAL 1000 mg/kg ip): 40.88 fold
Fold-Change Kng1 mRNA (rats [3]; rat plasma, DGAL 1000 mg/kg ip): 45.12 fold
Fold-Change LOC259245 mRNA (rats [3]; rat plasma, DGAL 1000 mg/kg ip): 11.52 fold
Fold-Change Lta4h mRNA (rats [3]; rat plasma, DGAL 1000 mg/kg ip): 3.40 fold
Fold-Change Mt2a mRNA (rats [3]; rat plasma, DGAL 1000 mg/kg ip): 18.20 fold
Fold-Change Mug1 mRNA (rats [3]; rat plasma, DGAL 1000 mg/kg ip): 108.00 fold
Fold-Change Obp3 mRNA (rats [3]; rat plasma, DGAL 1000 mg/kg ip): 96.26 fold
Fold-Change Pgrmc1 mRNA (rats [3]; rat plasma, DGAL 1000 mg/kg ip): 3.12 fold
Fold-Change Prdx5 mRNA (rats [3]; rat plasma, DGAL 1000 mg/kg ip): 2.03 fold
Fold-Change Rbp4 mRNA (rats [3]; rat plasma, DGAL 1000 mg/kg ip): 36.82 fold
Fold-Change Serpina1 mRNA (rats [3]; rat plasma, DGAL 1000 mg/kg ip): 12.61 fold
Fold-Change Serpina3k mRNA (rats [3]; rat plasma, DGAL 1000 mg/kg ip): 36.42 fold
Fold-Change Spp2 mRNA (rats [3]; rat plasma, DGAL 1000 mg/kg ip): 34.78 fold
Fold-Change Ttr mRNA (rats [3]; rat plasma, DGAL 1000 mg/kg ip): 60.61 fold and 61 fold
Fold-Change Tuba4a mRNA (rats [3]; rat plasma, DGAL 1000 mg/kg ip): 2.24 fold
Fold-Change Vtn mRNA (rats [3]; rat plasma, DGAL 1000 mg/kg ip): 57.99 fold
